Measurements taken from ChEMBL document CHEMBL1201862, “PubChem BioAssay data set” (2004).
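Cells were grown in 96-well plates and exposed to each compound for 48 hours at five concentrations; endpoints were interpolated linearly between bracketing concentrations, or set to the highest concentration if not reached. GI50 = concentration required for 50% inhibition of growth.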 Active and inactive are the calls of the source. Rule as the data show it: active = GI50 up to about 1.1 µM and inactive = higher.

Legend:
Assay in all cases: NCI-60 cell line screen, 48 h
[1] = system: COLO 205
[2] = system: OVCAR-4
[3] = system: RXF 393
[4] = system: TK-10
[5] = system: SW-620
[6] = system: HOP-92
[7] = system: 786-0
[8] = system: NCI-H522
[9] = system: NCI/ADR-RES
[10] = system: M14
[11] = system: A498
[12] = system: OVCAR-5
[13] = system: OVCAR-8
[14] = system: MDA-MB-231
[15] = system: SN12C
[16] = system: PC-3
[17] = system: RPMI-8226
[18] = system: SF-268
[19] = system: Hs-578T

SMILES | GI50 [1] | GI50 [2] | GI50 [3] | GI50 [4] | GI50 [5] | GI50 [6] | GI50 [7] | GI50 [8] | GI50 [9] | GI50 [10] | GI50 [11] | GI50 [12] | GI50 [13] | GI50 [14] | GI50 [15] | GI50 [16] | GI50 [17] | GI50 [18] | GI50 [19]
O=C(NNCC(O)COc1ccccc1)c1ccccc1 (stereo not given) | > 100 µM (inactive) | > 100 µM (inactive) | > 100 µM (inactive) | > 100 µM (inactive) | > 100 µM (inactive) | > 100 µM (inactive) | > 100 µM (inactive) | > 100 µM (inactive) | > 100 µM (inactive) | > 100 µM (inactive) | > 100 µM (inactive) | > 100 µM (inactive) | > 100 µM (inactive) | > 100 µM (inactive) | > 100 µM (inactive) | > 100 µM (inactive) | > 100 µM (inactive) |  | 
CCCNc1ncnc2c1ncn2C | 96.4 µM (inactive) | > 100 µM (inactive) | > 100 µM (inactive) | > 100 µM (inactive) | 94.4 µM (inactive) | 37.6 µM (inactive) | 48.8 µM (inactive) | 41.8 µM (inactive) | 68.4 µM (inactive) | 58.5 µM (inactive) | 22.9 µM (inactive) |  | 48.5 µM (inactive) | 67.1 µM (inactive) | 27.4 µM (inactive) | > 100 µM (inactive) | 20.6 µM (inactive) |  | 
CCOC(=O)CCC(C(=O)OCC)n1nc2ccc(Nc3c(C)[n+]([O-])c4cc(F)c(OCC)cc4[n+]3[O-])cc2n1 (stereo not given) | > 100 µM (inactive) | 47.6 µM (inactive) | 11.6 µM (inactive) | 42.7 µM (inactive) | > 100 µM (inactive) | 21.4 µM (inactive) | 25.3 µM (inactive) | 30.8 µM (inactive) | 62.1 µM (inactive) | > 100 µM (inactive) | 52.4 µM (inactive) | > 100 µM (inactive) | 30 µM (inactive) |  | 91.2 µM (inactive) | 37.2 µM (inactive) | > 100 µM (inactive) | 14 µM (inactive) | 26.2 µM (inactive)
O=S(=O)(c1ccccc1)c1ccc(-c2nc(-c3ccc4c(c3)Sc3ccccc3S4)cs2)cc1 | > 100 µM (inactive) | > 100 µM (inactive) | 15.8 µM (inactive) | 22.1 µM (inactive) | > 100 µM (inactive) | 20.7 µM (inactive) | 17.2 µM (inactive) |  |  | 36.1 µM (inactive) |  | > 100 µM (inactive) | 71.9 µM (inactive) | 20.5 µM (inactive) | > 100 µM (inactive) | > 100 µM (inactive) | > 100 µM (inactive) | 26.7 µM (inactive) | 8.69 µM (inactive)
O=C(O)c1ccccc1Cc1ccco1 | > 100 µM (inactive) | > 100 µM (inactive) | > 100 µM (inactive) | > 100 µM (inactive) | > 100 µM (inactive) | > 100 µM (inactive) | > 100 µM (inactive) | > 100 µM (inactive) |  | > 100 µM (inactive) | > 100 µM (inactive) | > 100 µM (inactive) | > 100 µM (inactive) |  | > 100 µM (inactive) |  | > 100 µM (inactive) | > 100 µM (inactive) | 
CC(=O)/N=C1\C=C(NC(C)=O)C(=O)c2ccccc21 | 1.94 µM (inactive) | 1.66 µM (inactive) | 2.21 µM (inactive) | 5.64 µM (inactive) | 1.93 µM (inactive) | 1.45 µM (inactive) | 1.81 µM (inactive) | 1.33 µM (inactive) | 2.51 µM (inactive) | 1.73 µM (inactive) | 15.2 µM (inactive) | 2.13 µM (inactive) | 2.21 µM (inactive) |  | 1.78 µM (inactive) | 2.9 µM (inactive) | 1.39 µM (inactive) | 3.18 µM (inactive) | 6.28 µM (inactive)
COc1ccc(C2c3cc4c(cc3C(O)C3CCC(=O)N23)OCO4)cc1 (stereo not given) | > 100 µM (inactive) | > 100 µM (inactive) |  | > 100 µM (inactive) | > 100 µM (inactive) | > 100 µM (inactive) | > 100 µM (inactive) | > 100 µM (inactive) | > 100 µM (inactive) | > 100 µM (inactive) | > 100 µM (inactive) | > 100 µM (inactive) | > 100 µM (inactive) |  | > 100 µM (inactive) | > 100 µM (inactive) | > 100 µM (inactive) | > 100 µM (inactive) | > 100 µM (inactive)
Nc1ncnc2c1ncn2C1CCC(CP(=O)(O)O)C1 (stereo not given) | > 100 µM (inactive) | > 100 µM (inactive) | > 100 µM (inactive) | > 100 µM (inactive) | > 100 µM (inactive) |  | > 100 µM (inactive) |  | > 100 µM (inactive) | > 100 µM (inactive) |  | > 100 µM (inactive) | > 100 µM (inactive) | > 100 µM (inactive) | > 100 µM (inactive) | > 100 µM (inactive) | > 100 µM (inactive) | > 100 µM (inactive) | > 100 µM (inactive)
CNc1ncnc2c1ncn2C1C=CC(COS(N)(=O)=O)C1 (stereo not given) | > 100 µM (inactive) | > 100 µM (inactive) | > 100 µM (inactive) |  | > 100 µM (inactive) | > 100 µM (inactive) | > 100 µM (inactive) | > 100 µM (inactive) | > 100 µM (inactive) | > 100 µM (inactive) | > 100 µM (inactive) |  | > 100 µM (inactive) |  | > 100 µM (inactive) | > 100 µM (inactive) | > 100 µM (inactive) | > 100 µM (inactive) | > 100 µM (inactive)
CN(c1c(Cl)cccc1Cl)S(=O)(=O)c1ccccc1[N+](=O)[O-] | > 100 µM (inactive) | > 100 µM (inactive) | > 100 µM (inactive) | > 100 µM (inactive) | > 100 µM (inactive) |  | > 100 µM (inactive) | > 100 µM (inactive) | > 100 µM (inactive) | > 100 µM (inactive) |  | > 100 µM (inactive) | > 100 µM (inactive) |  | > 100 µM (inactive) | > 100 µM (inactive) | > 100 µM (inactive) | > 100 µM (inactive) | > 100 µM (inactive)
CCOC(=O)c1c(SCCCN2CCCCC2)n(-c2ccccc2)c(=S)n(-c2ccccc2)c1=O | 16.4 µM (inactive) | 17.7 µM (inactive) | 18.3 µM (inactive) | 20.6 µM (inactive) | 17.7 µM (inactive) | 14.4 µM (inactive) | 3.87 µM (inactive) | 19.3 µM (inactive) |  | 16.5 µM (inactive) | 20.1 µM (inactive) | 17.7 µM (inactive) | 19.3 µM (inactive) | 19.4 µM (inactive) | 16.2 µM (inactive) | 16.4 µM (inactive) | 6.67 µM (inactive) | 37.5 µM (inactive) | 20.9 µM (inactive)
CC(=O)Nc1ccc(N2C(=O)/C(=C\c3cccc(Oc4ccccc4)c3)S(=O)(=O)C2c2ccccc2)cc1 (stereo not given) | > 100 µM (inactive) | 37.8 µM (inactive) | > 100 µM (inactive) | > 100 µM (inactive) | 33.3 µM (inactive) | 55.2 µM (inactive) | > 100 µM (inactive) | 71.8 µM (inactive) | 37.2 µM (inactive) | 67 µM (inactive) | > 100 µM (inactive) | > 100 µM (inactive) | 35.7 µM (inactive) | > 100 µM (inactive) | 46.5 µM (inactive) | 61.1 µM (inactive) | 20.4 µM (inactive) |  | 
O=C(NC1CCCCC1)N1CCNC1=S | > 100 µM (inactive) | > 100 µM (inactive) | 7.71 µM (inactive) | > 100 µM (inactive) | > 100 µM (inactive) | > 100 µM (inactive) | > 100 µM (inactive) | > 100 µM (inactive) | > 100 µM (inactive) | > 100 µM (inactive) | > 100 µM (inactive) | > 100 µM (inactive) | > 100 µM (inactive) | 3.2 µM (inactive) | > 100 µM (inactive) |  | 65.6 µM (inactive) | > 100 µM (inactive) | > 100 µM (inactive)
CCC(C)C(NC(=O)c1c2ccccc2nc2ccccc12)C(=O)O (stereo not given) | > 100 µM (inactive) | > 100 µM (inactive) |  | > 100 µM (inactive) | > 100 µM (inactive) | > 100 µM (inactive) | > 100 µM (inactive) | > 100 µM (inactive) | > 100 µM (inactive) | > 100 µM (inactive) | > 100 µM (inactive) | > 100 µM (inactive) | > 100 µM (inactive) | > 100 µM (inactive) | > 100 µM (inactive) | > 100 µM (inactive) | > 100 µM (inactive) | > 100 µM (inactive) | 
Cc1n[n+](Cc2ccccc2)c2sc(N)nn12 | > 100 µM (inactive) | > 100 µM (inactive) | > 100 µM (inactive) | > 100 µM (inactive) | 64.6 µM (inactive) |  | > 100 µM (inactive) | 30 µM (inactive) | > 100 µM (inactive) | > 100 µM (inactive) | > 100 µM (inactive) | > 100 µM (inactive) | > 100 µM (inactive) |  | > 100 µM (inactive) | > 100 µM (inactive) | > 100 µM (inactive) | 35.3 µM (inactive) | > 100 µM (inactive)
COc1cc2c[n+](C)c3c4cc(OC)c(OC)cc4c(OCc4ccccc4)cc3c2cc1OC | 0.263 µM (active) | 2.02 µM (inactive) | 1.6 µM (inactive) | > 31.6 µM (inactive) | 0.805 µM (active) | 0.966 µM (active) | 0.634 µM (active) | 0.155 µM (active) | > 100 µM (inactive) | 1.77 µM (inactive) | 27.3 µM (inactive) | > 100 µM (inactive) | 1.91 µM (inactive) | 2.32 µM (inactive) | 0.265 µM (active) | 0.877 µM (active) | 5.28 µM (inactive) | 0.0432 µM (active) | 
